Laboratory results from US8647865B2, “Promiscuous PAP CD4 T cell epitopes” (Dendreon Corporation, priority 2006, dated 2014).

Assays:
Type in all cases: cell-based, human
[1] = test system: CD4+ T-cell clone (PAPc66); test: MHC Class II blocking assay with autologous EBV-LcL, IFNγ ELISA; settings: peptide at 2 μg/mL, 48 hours
Protocol: FIG. 2. PAPc661 is MHC class II restricted. PAPc66 was stimulated with autologous EBV-LcL at 2×10^5 cells/mL and PAP257-271 at 2 μg/mL in the presence of MHC Class II blocking antibodies. The assay was set up in 96 well round bottom plates in complete RPMI media +10% FBS with anti-HLA-DR ♦ (Dendreon) and anti-HLA-DP ▪ or anti HLA-DQ ▴ (Leinco Technologies, Inc., St. Louis, […].) at the concentrations shown. Anti-HLA-A2 antibody (∘) was used as a negative control. PAPc66 was added to all wells at 1×10^5 cells/well and the assay was incubated for 48 hours at 37° C. and 5% CO2. After the incubation, supernatants were harvested and tested for IFNγ by ELISA. IFNγ was not detected for conditions without peptide.
All assays were set up in triplicate in 96-well round bottom plates with antigen or peptide in cRPMI 1640+10% FBS (Fetal Bovine Serum (Invitrogen, Carlsbad, Calif.)), T cell clones at 1×10^5 cells/well and antigen presenting cells at 2×10^5 cells/well. Autologous EBV-LcL were used for antigen presenting cells in specificity assays and assays conducted to show peptide promiscuity using the HLA-DRB1 EBV-LcLs. All assays were incubated for 48 hours at 37° C. with 5% CO2. […]
(§1) IFN[…] production was measured using anti-human IFNγ antibody pairs for ELISA (BD Pharmingen, San Diego, Calif.). […] 2M HCl was added to stop the reaction and plates were read for absorbance at 492 nm on a spectrophotometer. […]

[2] = test system: CD4+ T-cell clone (PAPc66); test: Peptide promiscuity assay: HLA-DRβ1 homozygous EBV-LcL lines present the peptide to PAPc66, IFNγ and granzyme B measured by ELISA
Text: FIG. 3. PAP257-271 is a promiscuous MHC class II PAP epitope recognized by the T cell clone PAPc66. (A) The peptide, PAP257-271 (RLQGGVLVNNEILNHM; SEQ ID NO:1), recognized by a CD4+ T-cell clone (PAPc66) in the context of MHC class II, is capable of inducing T-cell activation when presented by lymphoblastoid cell lines representing 9 different HLA-DR serological families (β chain; DR1, DR4, DR7, DR8, DR11, DR12, DR13, DR14, DR15) having over 15 distinct HLA-DRβ1 alleles. […] The assay was set up in 96 well round bottom plates with PAPc66 at 1×10^5 cells/well, PAP257-271 at 2 μg/mL and 2×10^5 EBV-LcL per well in complete RPMI+10% FBS. Each HLA-DR[…]EBV-LcL line, homozygous for the HLA-DRβ1 allele shown, was tested for the ability to present PAP257-271 to PAPc66. An irrelevant PAP peptide and no peptide control were also included. After 48-hour incubation at 37° C. and 5% CO2, supernatants were tested for IFNγ and granzyme B (B) by ELISA. Results are shown with background (no peptide) for each EBV-LcL line and PAPc66 subtracted.
HLA-DRβ1 EBV-LcL lines were purchased from the European Collection of Cell Cultures originating from the 12th International Histocompatibility Workshop (IHW) held in Strasbourg, France. HLA-DR EBV-transformed lymphoblastoid cells were homozygous for the HLA-DRβ1 allele (Table I). EBV-LcL were also generated from various subject PBMC using supernatant from the B95-8 cell line (ATCC, Manassas, Va.) for the expansion and testing of autologous T cell clones.
All assays were set up in triplicate in 96-well round bottom plates with antigen or peptide in cRPMI 1640+10% FBS (Fetal Bovine Serum (Invitrogen, Carlsbad, Calif.)), T cell clones at 1×10^5 cells/well and antigen presenting cells at 2×10^5 cells/well. […]
as §1

[3] = test system: CD4+ T-cell clone (PAPc66); test: Antigen specificity of T cell clone PAPc66 with autologous EBV-LcL, IFNγ ELISA
Protocol: FIG. 1. T cell clone PAPc66 recognizes a naturally processed epitope from PAP. (A) PAP fusion proteins PA2024, CHOPA2024 and hPAPGM and PAP from a baculoviral expression system (iPAP) and mammalian expression system (CHOPAP) were titrated with autologous EBV-LcL and PAPc66. Assay was set up in 96 well round bottom plates with 1×10^5 cells/well of PAPc66, 2×10^5 cells/well EBV-LcL and antigens at 50 μg/mL (black bars), 25 μg/mL (stripe bars) and 12.5 μg/mL (dot bars) in complete RPMI media with 10% FBS. Assay was incubated for 48 hours at 37° C. with 5% CO2 at which time supernatants were harvested and tested for IFNγ by ELISA. (B) To map the specific PAP peptide, chemically synthesized peptides from the PAP sequence were used. These 94 peptides were 15 amino acids in length overlapping by 11 amino acids and were individually tested for the ability to stimulate PAPc66 using autologous EBV-LcL and each peptide at 2 μg/mL in the assay. The assay was set up as in (A) and supernatants were tested for IFNγ by ELISA. […] Supernatants were analyzed for peptide specific IFNγ production by ELISA. […]
as §1

Sequence: RLQGGVLVNEILNHM (residues 257-271 of human prostatic acid phosphatase (PAP), PAP epitope 257-271, Peptide #65, PAP-257-271) [PAP257-271, peptide corresponding to residues 257-271 of the human PAP protein]
- MHC class II restriction of presentation (blocking antibodies anti-HLA-DR, -DP, -DQ) [1]: presented both in the context of HLA-DR and HLA-DQ
- cytokine production by clone PAPc66 upon activation with the presented peptide ([2]; IFNγ and granzyme B ELISA of supernatants): produce IFNγ and granzyme B upon activation
- number of distinct HLA-DRβ1 alleles presenting the peptide with T-cell activation ([2]; peptide at 2 μg/mL, 48 hours, EBV-LcL homozygous for the HLA-DRβ1 allele): over 15
- number of different HLA-DR serological families whose lymphoblastoid cell lines present the peptide and induce T-cell activation ([2]; peptide at 2 μg/mL, 48 hours, PAPc66 1×10^5 cells/well, 2×10^5 EBV-LcL per well): 9
- nature of the epitope recognized by PAPc66 (summary of FIGS. 1-3) [3]: naturally processed, MHC class II-restricted promiscuous epitope
